From ChEMBL document CHEMBL3784916, “Synthesis and anticancer activity of novel fluorinated asiatic acid derivatives” (Eur J Med Chem, 2016)
Active and inactive are the calls of the source. The rule behind the calls is not given here.

Tests used:
HeLa [1] = test: Induction of apoptosis in human HeLa cells assessed as late apoptotic cells at 1.34 uM after 48 hrs by annexin V-FITC/propidium iodide staining-based flow cytometry ( Rvb = 1.28%); type: functional
HeLa [2] = test: Induction of apoptosis in human HeLa cells assessed as early apoptotic cells at 2.68 uM after 48 hrs by annexin V-FITC/propidium iodide staining-based flow cytometry ( Rvb = 3.24%); type: functional
HT-29 = test: Cytotoxicity against human HT-29 cells after 72 hrs by MTT assay; type: functional, cell-based; conditions: HT-29, 72 h
HeLa [3] = test: Induction of apoptosis in human HeLa cells assessed as upregulation of Bax level after 48 hrs by Western blot method; type: functional, cell-based
HeLa [4] = test: Induction of apoptosis in human HeLa cells assessed as increase in t-Bid level at 2.68 uM after 48 hrs by Western blot method; type: functional, cell-based
HeLa [5] = test: Induction of apoptosis in human HeLa cells assessed as cell shrinkage at 0.67 to 1.34 uM after 48 hrs by Hoechst 33258 staining-based fluorescence microscopy; type: functional
HeLa [6] = test: Cytotoxicity against human HeLa cells after 72 hrs by MTT assay; type: functional, cell-based
HeLa [7] = test: Induction of cell cycle arrest in human HeLa cells assessed as accumulation at subG0/G1 phase at 2.68 uM after 48 hrs by propidium iodide staining-based flow cytometry; type: functional
HeLa [8] = test: Induction of apoptosis in human HeLa cells assessed as dead cells at 0.67 uM after 48 hrs by annexin V-FITC/propidium iodide staining-based flow cytometry ( Rvb = 0.067%); type: functional
HeLa [9] = test: Induction of apoptosis in human HeLa cells assessed as increase in cleaved caspase-3 level at 2.68 uM after 48 hrs by Western blot method; type: functional, cell-based
[10] = (§1) Cytotoxicity against human PC3 cells after 72 hrs by MTT assay; type: functional, cell-based; conditions: PC-3, 72 h
PC-3 = test: as §1; type: functional, cell-based
HeLa [11] = test: Induction of cell cycle arrest in human HeLa cells assessed as accumulation at G0/G1 phase at 2.68 uM after 24 hrs by propidium iodide staining-based flow cytometry (reference value: 51.41%); type: functional
HeLa [12] = test: Induction of apoptosis in human HeLa cells assessed as dead cells at 2.68 uM after 48 hrs by annexin V-FITC/propidium iodide staining-based flow cytometry ( Rvb = 0.067%); type: functional
HeLa [13] = test: Induction of apoptosis in human HeLa cells assessed as viable cells at 0.67 uM after 48 hrs by annexin V-FITC/propidium iodide staining-based flow cytometry ( Rvb = 95.4%); type: functional; conditions: read-out: Activity
HeLa [14] = test: Induction of cell cycle arrest in human HeLa cells assessed as accumulation at S phase at 2.68 uM after 24 hrs by propidium iodide staining-based flow cytometry (reference value: 35.72%); type: functional
HeLa [15] = test: Induction of apoptosis in human HeLa cells assessed as early apoptotic cells at 0.67 uM after 48 hrs by annexin V-FITC/propidium iodide staining-based flow cytometry ( Rvb = 3.24%); type: functional
HeLa [16] = test: Induction of apoptosis in human HeLa cells assessed as nuclear fragmentation at 2.68 uM after 48 hrs by Hoechst 33258 staining-based fluorescence microscopy; type: functional, cell-based
BJ = test: Cytotoxicity against human BJ cells after 72 hrs by MTT assay; type: cell-based; conditions: Homo sapiens, BJ
HeLa [17] = test: Induction of apoptosis in human HeLa cells assessed as viable cells at 1.34 uM after 48 hrs by annexin V-FITC/propidium iodide staining-based flow cytometry ( Rvb = 95.4%); type: functional; conditions: read-out: Activity
HeLa [18] = test: Induction of apoptosis in human HeLa cells assessed as chromatin condensation at 0.67 to 1.34 uM after 48 hrs by Hoechst 33258 staining-based fluorescence microscopy; type: functional, cell-based
HeLa [19] = test: Induction of cell cycle arrest in human HeLa cells assessed as accumulation at S phase at 1.34 uM after 24 hrs by propidium iodide staining-based flow cytometry (reference value: 35.72%); type: functional
HeLa [20] = test: Induction of apoptosis in human HeLa cells assessed as late apoptotic cells at 2.68 uM after 48 hrs by annexin V-FITC/propidium iodide staining-based flow cytometry ( Rvb = 1.28%); type: functional
HeLa [21] = test: Downregulation of cyclin E level in human HeLa cells at 0.67 to 2.68 uM after 48 hrs by Western blot method; type: functional, cell-based
HeLa [22] = test: Potency index, ratio of cisplatin IC50 to compound IC50 for human HeLa cells; type: functional
HeLa [23] = test: Induction of apoptosis in human HeLa cells assessed as late apoptotic cells at 0.67 uM after 48 hrs by annexin V-FITC/propidium iodide staining-based flow cytometry ( Rvb = 1.28%); type: functional
A-375 = test: Cytotoxicity against human A375 cells after 72 hrs by MTT assay; type: functional, cell-based
HeLa [24] = test: Induction of apoptosis in human HeLa cells assessed as downregulation of Bcl2 level after 48 hrs by Western blot method; type: functional, cell-based
HeLa [25] = test: Induction of cell cycle arrest in human HeLa cells assessed as accumulation at G0/G1 phase at 1.34 uM after 24 hrs by propidium iodide staining-based flow cytometry (reference value: 51.41%); type: functional
HeLa [26] = test: Induction of apoptosis in human HeLa cells assessed as dead cells at 1.34 uM after 48 hrs by annexin V-FITC/propidium iodide staining-based flow cytometry ( Rvb = 0.067%); type: functional
MCF7 = test: Cytotoxicity against human MCF7 cells after 72 hrs by MTT assay; type: functional, cell-based
HeLa [27] = test: Induction of apoptosis in human HeLa cells assessed as viable cells at 2.68 uM after 48 hrs by annexin V-FITC/propidium iodide staining-based flow cytometry ( Rvb = 95.4%); type: functional; conditions: read-out: Activity
HeLa [28] = test: Induction of apoptosis in human HeLa cells assessed as reduction in adherent cells at 0.67 to 1.34 uM after 48 hrs by Hoechst 33258 staining-based fluorescence microscopy; type: functional, cell-based
HeLa [29] = test: Induction of apoptosis in human HeLa cells assessed as early apoptotic cells at 1.34 uM after 48 hrs by annexin V-FITC/propidium iodide staining-based flow cytometry ( Rvb = 3.24%); type: functional
[30] = (§2) Cytotoxicity against human MIAPaCa2 cells after 72 hrs by MTT assay; type: functional, cell-based; conditions: MIA PaCa-2, 72 h
MIA PaCa-2 = test: as §2; type: functional, cell-based
HeLa [31] = test: Induction of apoptosis in human HeLa cells assessed as rupture of cell membrane at 2.68 uM after 48 hrs by Hoechst 33258 staining-based fluorescence microscopy; type: functional
HeLa [32] = test: Upregulation of p27 kip1 level in human HeLa cells at 1.34 to 2.68 uM after 48 hrs by Western blot method; type: functional, cell-based
HeLa [33] = test: Induction of apoptosis in human HeLa cells assessed as increase in Bax to Bcl2 ratio at 0.67 to 2.68 uM after 48 hrs by Western blot method; type: functional, cell-based
HeLa [34] = test: Induction of cell cycle arrest in human HeLa cells assessed as accumulation at G0/G1 phase at 1.34 uM after 48 hrs by propidium iodide staining-based flow cytometry (reference value: 54.05%); type: functional
HeLa [35] = test: Induction of apoptosis in human HeLa cells assessed as increase in cleaved PARP level at 2.68 uM after 48 hrs by Western blot method; type: functional, cell-based
HeLa [36] = test: Induction of apoptosis in human HeLa cells assessed as increase in cleaved caspase-8 level at 2.68 uM after 48 hrs by Western blot method; type: functional, cell-based
Jurkat = test: Cytotoxicity against human Jurkat cells after 72 hrs by XTT assay; type: functional, cell-based
HeLa [37] = test: Potency index, ratio of asiatic acid IC50 to compound IC50 for human HeLa cells; type: functional
HeLa [38] = test: Upregulation of p21 cip1/waf1 level in human HeLa cells at 1.34 to 2.68 uM after 48 hrs by Western blot method; type: functional, cell-based
HeLa [39] = test: Downregulation of cyclin D3 level in human HeLa cells after 48 hrs by Western blot method; type: functional, cell-based

C[C@H]1[C@H](C)CC[C@@]23CC[C@]4(C)[C@](OC2=O)([C@H](F)C[C@@H]2[C@@]5(C)C(C=O)=C[C@@](C)(COC(=O)/C=C/c6ccccc6)[C@@H]5CC[C@]24C)[C@H]13
Activity (HeLa [1]): 2.6% | Activity (HeLa [2]): 12.1% | IC50 (HT-29): 710 nM | Activity (HeLa [3]): Dose-dependent effect | Activity (HeLa [4]): Active | Activity (HeLa [5]): Active | IC50 (HeLa [6]): 670 nM | Activity (HeLa [7]): 11.39% | Activity (HeLa [8]): 0.193% | Activity (HeLa [9]): Active | IC50 [10]: 740 nM | Activity (PC-3): Dose-dependent effect | Activity (HeLa [11]): 72.72% | Activity (HeLa [12]): 2.86% | viability at 0.67 µM (HeLa [13]): 94.7% | Activity (HeLa [14]): 11.05% | Activity (HeLa [15]): 3.65% | Activity (HeLa [16]): Active | IC50 (BJ): 1940 nM | viability at 1.34 µM (HeLa [17]): 92% | Activity (HeLa [18]): Active | Activity (HeLa [19]): 22.55% | Activity (HeLa [20]): 22.6% | Activity (HeLa [21]): Active | Ratio IC50 (HeLa [22]): 3.5 | Activity (HeLa [23]): 1.23% | Activity (A-375): Dose-dependent effect | IC50 (A-375; A-375, 72 h): 720 nM | Activity (HeLa [24]): Dose-dependent effect | Activity (HeLa [25]): 67.26% | Activity (HeLa [26]): 0.172% | Activity (MCF7): Dose-dependent effect | IC50 (MCF7; MCF7, 72 h): 840 nM | viability at 2.68 µM (HeLa [27]): 62.4% | Activity (HeLa [28]): Active | Activity (HeLa [29]): 5.25% | IC50 [30]: 1130 nM | Activity (MIA PaCa-2): Dose-dependent effect | Activity (HeLa [31]): Active | Activity (HeLa [32]): Active | Activity (HeLa [33]): Active | Activity (HeLa [34]): 76.03% | Activity (HeLa [35]): Active | Activity (HeLa [36]): Active | Activity (Jurkat): Dose-dependent effect | IC50 (Jurkat): 680 nM | Ratio IC50 (HeLa [37]): 79 | Activity (HeLa [38]): Active | Activity (HeLa [39]): Dose-dependent effect
